ChEMBL document CHEMBL3885881, “DrugMatrix”

Species on record: Rattus norvegicus
Test: DrugMatrix - Regimen: Daily Repeat
Format: toxicity, organism-based, Sprague-Dawley
Set-up: regimen Daily Repeat, gender Male, age 6-8 weeks
Settings: in vivo, po, route oral GAVAGE, vehicle .5 % CMC; for ABSOLUTE BASOPHIL / ABSOLUTE EOSINOPHIL / ABSOLUTE LYMPHOCYTE / ABSOLUTE MONOCYTE / ABSOLUTE SEGMENTED NEUTROPHIL / BASOPHIL / EOSINOPHIL / ERYTHROCYTE COUNT / HEMATOCRIT / HEMOGLOBIN / LEUKOCYTE COUNT / LYMPHOCYTE / MEAN CORPUSCULAR HEMOGLOBIN / MEAN CORPUSCULAR HEMOGLOBIN CONCENTRATION / MEAN CORPUSCULAR VOLUME / MONOCYTE / NEUTROPHIL / NUCLEATED RED BLOOD CELLS / PLATELET COUNT: tissue Blood; for ALANINE AMINOTRANSFERASE / ALBUMIN / ALKALINE PHOSPHATASE / ASPARTATE AMINOTRANSFERASE / BLOOD UREA NITROGEN / CARBON DIOXIDE / CHLORIDE / CHOLESTEROL / CREATINE PHOSPHOKINASE / CREATININE / GLUCOSE / LACTATE DEHYDROGENASE / LIPASE / PHOSPHORUS / POTASSIUM / SODIUM / TOTAL BILIRUBIN / TOTAL PROTEIN / URIC ACID: tissue Plasma
[1] = 15 mg/kg, 120 h, dose level Low, time 5 day
[2] = 710 mg/kg, 72 h, dose level High, time 3 day
[3] = 710 mg/kg, 120 h, dose level High, time 5 day

CN1C(=O)CN=C(c2ccccc2)c2cc(Cl)ccc21 [DIAZEPAM]
ABSOLUTE BASOPHIL [1]: 0 CELLS/uL
ABSOLUTE EOSINOPHIL [1]: 72 CELLS/uL
ABSOLUTE LYMPHOCYTE [1]: 10533.67 CELLS/uL
ABSOLUTE MONOCYTE [1]: 40.33 CELLS/uL
ABSOLUTE SEGMENTED NEUTROPHIL [1]: 587.33 CELLS/uL
BASOPHIL [1]: 0%
EOSINOPHIL [1]: 0.67%
ERYTHROCYTE COUNT [1]: 5.7 x10E6/uL
HEMATOCRIT [1]: 36.2%
HEMOGLOBIN [1]: 14.23 G/DL
LEUKOCYTE COUNT [1]: 11.23 x10E3/uL
LYMPHOCYTE [1]: 93.67%
MEAN CORPUSCULAR HEMOGLOBIN [1]: 25.07 pg
MEAN CORPUSCULAR HEMOGLOBIN CONCENTRATION [1]: 39.37 G/DL
MEAN CORPUSCULAR VOLUME [1]: 63.67 fL
MONOCYTE [1]: 0.33%
NEUTROPHIL [1]: 5.33%
NUCLEATED RED BLOOD CELLS [1]: 0 /100WBC
PLATELET COUNT [1]: 1134.33 x10E3/uL
ALANINE AMINOTRANSFERASE [1]: 51.33 u/L
ALBUMIN [1]: 4.17 G/DL
ALKALINE PHOSPHATASE [1]: 404.33 u/L
ASPARTATE AMINOTRANSFERASE [1]: 80.33 u/L
BLOOD UREA NITROGEN [1]: 16.33 mg/dL
CARBON DIOXIDE [1]: 27.67 mmol/L
CHLORIDE [1]: 101.67 MEQ/L
CHOLESTEROL [1]: 58.67 mg/dL
CREATINE PHOSPHOKINASE [1]: 231 u/L
CREATININE [1]: 0.18 mg/dL
GLUCOSE [1]: 147.67 mg/dL
LACTATE DEHYDROGENASE [1]: 117.67 u/L
LIPASE [1]: 9 u/L
PHOSPHORUS [1]: 12.13 mg/dL
POTASSIUM [1]: 7.09 MEQ/L
SODIUM [1]: 143.97 MEQ/L
TOTAL BILIRUBIN [1]: 0.23 mg/dL
TOTAL PROTEIN [1]: 5.93 G/DL
URIC ACID [1]: 1.43 mg/dL
ABSOLUTE BASOPHIL [2]: 0 CELLS/uL
ABSOLUTE EOSINOPHIL [2]: 125.67 CELLS/uL
ABSOLUTE LYMPHOCYTE [2]: 9703.33 CELLS/uL
ABSOLUTE MONOCYTE [2]: 42.33 CELLS/uL
ABSOLUTE SEGMENTED NEUTROPHIL [2]: 1128.67 CELLS/uL
BASOPHIL [2]: 0%
EOSINOPHIL [2]: 1%
ERYTHROCYTE COUNT [2]: 5.78 x10E6/uL
HEMATOCRIT [2]: 35.37%
HEMOGLOBIN [2]: 13.83 G/DL
LEUKOCYTE COUNT [2]: 11 x10E3/uL
LYMPHOCYTE [2]: 88.33%
MEAN CORPUSCULAR HEMOGLOBIN [2]: 23.93 pg
MEAN CORPUSCULAR HEMOGLOBIN CONCENTRATION [2]: 39.1 G/DL
MEAN CORPUSCULAR VOLUME [2]: 61.17 fL
MONOCYTE [2]: 0.33%
NEUTROPHIL [2]: 10.33%
NUCLEATED RED BLOOD CELLS [2]: 0 /100WBC
PLATELET COUNT [2]: 1330.67 x10E3/uL
ALANINE AMINOTRANSFERASE [2]: 69.67 u/L
ALBUMIN [2]: 4.07 G/DL
ALKALINE PHOSPHATASE [2]: 240 u/L
ASPARTATE AMINOTRANSFERASE [2]: 86.67 u/L
BLOOD UREA NITROGEN [2]: 14 mg/dL
CARBON DIOXIDE [2]: 33.33 mmol/L
CHLORIDE [2]: 101.33 MEQ/L
CHOLESTEROL [2]: 106.33 mg/dL
CREATINE PHOSPHOKINASE [2]: 222 u/L
CREATININE [2]: 0.21 mg/dL
GLUCOSE [2]: 159 mg/dL
LACTATE DEHYDROGENASE [2]: 204.67 u/L
LIPASE [2]: 10.67 u/L
PHOSPHORUS [2]: 12.7 mg/dL
POTASSIUM [2]: 6.45 MEQ/L
SODIUM [2]: 143.1 MEQ/L
TOTAL BILIRUBIN [2]: 0.2 mg/dL
TOTAL PROTEIN [2]: 5.53 G/DL
URIC ACID [2]: 1.27 mg/dL
ABSOLUTE BASOPHIL [3]: 0 CELLS/uL
ABSOLUTE EOSINOPHIL [3]: 31.67 CELLS/uL
ABSOLUTE LYMPHOCYTE [3]: 10193.33 CELLS/uL
ABSOLUTE MONOCYTE [3]: 269 CELLS/uL
ABSOLUTE SEGMENTED NEUTROPHIL [3]: 1672.67 CELLS/uL
BASOPHIL [3]: 0%
EOSINOPHIL [3]: 0.33%
ERYTHROCYTE COUNT [3]: 5.59 x10E6/uL
HEMATOCRIT [3]: 34.87%
HEMOGLOBIN [3]: 13.8 G/DL
LEUKOCYTE COUNT [3]: 12.17 x10E3/uL
LYMPHOCYTE [3]: 84%
MEAN CORPUSCULAR HEMOGLOBIN [3]: 24.77 pg
MEAN CORPUSCULAR HEMOGLOBIN CONCENTRATION [3]: 39.6 G/DL
MEAN CORPUSCULAR VOLUME [3]: 62.47 fL
MONOCYTE [3]: 2.33%
NEUTROPHIL [3]: 13.33%
NUCLEATED RED BLOOD CELLS [3]: 0 /100WBC
PLATELET COUNT [3]: 1299.67 x10E3/uL
ALANINE AMINOTRANSFERASE [3]: 81.67 u/L
ALBUMIN [3]: 3.93 G/DL
ALKALINE PHOSPHATASE [3]: 319.33 u/L
ASPARTATE AMINOTRANSFERASE [3]: 104.67 u/L
BLOOD UREA NITROGEN [3]: 13.67 mg/dL
CARBON DIOXIDE [3]: 25.33 mmol/L
CHLORIDE [3]: 101 MEQ/L
CHOLESTEROL [3]: 119.67 mg/dL
CREATINE PHOSPHOKINASE [3]: 535.33 u/L
CREATININE [3]: 0.16 mg/dL
GLUCOSE [3]: 133.33 mg/dL
LACTATE DEHYDROGENASE [3]: 507 u/L
LIPASE [3]: 11.33 u/L
PHOSPHORUS [3]: 11.5 mg/dL
POTASSIUM [3]: 5.38 MEQ/L
SODIUM [3]: 142.53 MEQ/L
TOTAL BILIRUBIN [3]: 0.13 mg/dL
TOTAL PROTEIN [3]: 5.7 G/DL
URIC ACID [3]: 1.23 mg/dL
